From ChEMBL document CHEMBL5576068, “Design, synthesis, and biological antitumor evaluation of tetrahydroisoquinoline derivatives” (Bioorg Med Chem Lett, 2024) come the findings set out here.

Some results are limits rather than exact numbers.

For orientation: inhibition means the relative decrease from the control value, in per cent. As a reminder, the IC50 is the concentration that gives 50% inhibition. A higher IC50 goes with weaker potency.

In assay [1] the test system is HCT-116. As to the kind of experiment: Cytotoxicity against human HCT-116 cells assessed as cell inhibition rate at 40 uM by CCK8 assay relative to control. It is filed as functional.
Assay [2] concerns MDA-MB-231. As to the kind of experiment: Cytotoxicity against human MDA-MB-231 cells assessed as cell inhibition rate at 40 uM by CCK8 assay relative to control. It is filed as functional. (In general: Tetrazolium assays rely on reduction of a dye to a coloured formazan, in cell work by metabolically active cells.)
Assay [3] concerns HepG2. As to the kind of experiment: Cytotoxicity against human HepG2 cells assessed as cell inhibition rate at 40 uM by CCK8 assay relative to control. In kind it is functional.
Assay [4] deals with A-375. As to the kind of experiment: Cytotoxicity against human A-375 cells assessed as cell inhibition rate at 40 uM by CCK8 assay relative to control. It is filed as functional.
The subject of assay [5] is HCT-116. As to the kind of experiment: Cytotoxicity against human HCT-116 cells measured for 48 hrs. In kind it is functional, cell-based. The settings on record: HCT-116, 48 h.
Assay [6] has as its system MDA-MB-231. As to the kind of experiment: Cytotoxicity against human MDA-MB-231 cells measured for 48 hrs. In kind it is functional, cell-based. The settings on record: MDA-MB-231, 48 h.
The subject of assay [7] is HepG2. As to the kind of experiment: Cytotoxicity against human HepG2 cells measured for 48 hrs. In kind it is functional, cell-based. The settings on record: HepG2, 48 h.
Assay [8] concerns A-375. Put plainly: Cytotoxicity against human A-375 cells measured for 48 hrs. It is filed as functional, cell-based. The settings on record: A-375, 48 h.

`COc1cc2c(cc1OC)CN(C)CC2`: the inhibition at 40 µM in assay [1] was 25.2%; in assay [2] it was 30.7%; in assay [3], 20.6%; in assay [4], 27.4%.
The like results for `CN1CCc2cc3c(cc2C1)OCO3` were, in that order, 18.2%, 14.5%, 26.8% and 22.5%.
The like results for `COc1cc2c(cc1OCc1ccccc1)CN(C)CC2` were, in that order, 32.9%, 30.2%, 16.3% and 14.7%.
As for `COc1cc2c(cc1OCc1ccccc1)C[N+](C)(Cc1ccc(Oc3ccc(-c4ccc(C#N)cc4)cc3)nc1)CC2` (centres undefined), the IC50 in assay [5] is 7.5 µM; in assay [6], more than 20 µM; in assay [7], 3.8 µM; in assay [8] it was 9.7 µM.
Turning to `COc1cc2c(cc1OCc1ccccc1)C[N+](C)(Cc1ccc([N+](=O)[O-])nc1)CC2` (centres undefined), the inhibition at 40 µM came to 26.6% in assay [1], 10.1% in assay [2], 22.6% in assay [3] and 16.1% in assay [4].
The like results for `C[N+]1(Cc2ccc(Br)nc2)CCc2cc3c(cc2C1)OCO3` (centres undefined) were, in that order, 29.2%, 23.2%, 19.8% and 9.69%.
In the case of `COc1cc2c(cc1OCc1ccccc1)C[N+](C)(Cc1ccc(Oc3ccc(Oc4ccccc4)cc3)nc1)CC2` (centres undefined), the IC50 in assay [5] came out at 11.6 µM; in assay [6] it was 12.6 µM; in assay [7] it was 12.6 µM; in assay [8] it was 7.6 µM.
On to `COc1cc2c(cc1OCc1ccccc1)C[N+](C)(Cc1ccc(Oc3ccc(Oc4ccc(C(F)(F)F)cc4)cc3)nc1)CC2` (centres undefined), for which the IC50 in assay [5] worked out at 4.1 µM; in assay [6] it was 9.8 µM; in assay [7], 4.1 µM; in assay [8], 6.1 µM.
On to `CCCCC[C@H]1CC[C@H](c2ccc(Oc3ccc(C[N+]4(C)CCc5cc(OC)c(OCc6ccccc6)cc5C4)cn3)cc2)CC1` (some centres undefined), for which the IC50 in assay [5] was 9 µM; in assay [6], 11.4 µM; in assay [7] it was 11.6 µM; in assay [8], 8.7 µM.
For `COc1cc2c(cc1OCc1ccccc1)C[N+](C)(Cc1ccc(Oc3ccc(OC(C)C)cc3)nc1)CC2` (centres undefined), in that order: 19.3 µM, more than 20 µM, 9.67 µM and 13.5 µM.
For `COc1cc2c(cc1OCc1ccccc1)C[N+](C)(Cc1ccc(Nc3ccccc3[N+](=O)[O-])nc1)CC2` (centres undefined), the IC50 turned out to be 4.6 µM in assay [5], 10 µM in assay [6], 4.8 µM in assay [7] and 7.6 µM in assay [8].
For `COc1cc2c(cc1OCc1ccccc1)C[N+](C)(Cc1ccc(Oc3ccc(C4CC4)cc3)nc1)CC2` (centres undefined), in that order: more than 20 µM, 12.5 µM, 19.2 µM and 15.7 µM.
The like results for `CCCCN(CCCC)c1ccc(Oc2ccc(C[N+]3(C)CCc4cc(OC)c(OCc5ccccc5)cc4C3)cn2)cc1` (centres undefined) were, in that order, 10.5 µM, more than 20 µM, 10 µM and 10.3 µM.
With `COc1cc2c(cc1OCc1ccccc1)C[N+](C)(Cc1ccc(Oc3cc(Cl)ccc3Oc3ccc(Cl)cc3Cl)nc1)CC2` (centres undefined), the IC50 was 4.5 µM in assay [5], 9.3 µM in assay [6], 4.7 µM in assay [7] and 5.4 µM in assay [8].
The like results for `COc1cc2c(cc1OCc1ccccc1)C[N+](C)(Cc1ccc(Oc3ccc(/N=N/c4ccccc4)cc3)nc1)CC2` (centres undefined) were, in that order, 11.6 µM, 13.3 µM, 13.1 µM and 5.5 µM.
For the compound `COc1cc2c(cc1OCc1ccccc1)C[N+](C)(Cc1cnc3ccccc3c1)CC2` (centres undefined), the inhibition at 40 µM in assay [1] came out at 8.29%; in assay [2], 7.43%; in assay [3] it was 6.8%; in assay [4] it was 13.9%.
On to `COc1cc2c(cc1OCc1ccccc1)C[N+](C)(Cc1ccc(Oc3ccc(SC(F)(F)F)cc3)nc1)CC2` (centres undefined), for which the IC50 is 13.4 µM in assay [5], 15.3 µM in assay [6], 14.6 µM in assay [7] and 11.6 µM in assay [8].
In the case of `COc1cc2c(cc1OCc1ccccc1)C[N+](C)(Cc1ccc(Br)nc1)CC2` (centres undefined), the inhibition at 40 µM in assay [1] amounted to 20.7%; in assay [2], 17.4%; in assay [3] it was 27.3%; in assay [4], 22.2%.
Turning to `COc1cc2c(cc1OCc1ccccc1)C[N+](C)(Cc1ccc(Oc3ccc(C45CC6CC(CC(C6)C4)C5)cc3)nc1)CC2` (centres undefined), the IC50 in assay [5] stood at 2.5 µM; in assay [6], 4.6 µM; in assay [7], 4.2 µM; in assay [8], 12.4 µM.
With `COc1cc2c(cc1OCc1ccccc1)C[N+](C)(Cc1ccccn1)CC2` (centres undefined), the inhibition at 40 µM in assay [1] was 11.6%; in assay [2], 9.61%; in assay [3], 18.9%; in assay [4] it was 13.7%.
For `COc1cc2c(c(OC)c1OC)CC[N+](C)(Cc1ccc(Br)nc1)C2` (centres undefined), in that order: 53.4%, 35.1%, 60.6% and 24.8%.
For the compound `COc1cc2c(cc1OCc1ccccc1)C[N+](C)(Cc1ccc(Br)cn1)CC2` (centres undefined), the inhibition at 40 µM in assay [1] came out at 16%; in assay [2], 23.7%; in assay [3] it was 27.8%; in assay [4], 31.2%.
Turning to `COc1cc2c(cc1OCc1ccccc1)C[N+](C)(Cc1ccc(Oc3ccc(C4CCC(=O)CC4)cc3)nc1)CC2` (centres undefined), the IC50 in assay [5] was 18.7 µM; in assay [6], 12.4 µM; in assay [7] it was more than 20 µM; in assay [8], 17.9 µM.
As for `COc1cc2c(cc1OCc1ccccc1)C[N+](C)(Cc1ccc3ccccc3n1)CC2` (centres undefined), the inhibition at 40 µM came to 3.2% in assay [1], 2.75% in assay [2], 7.43% in assay [3] and 13% in assay [4].
Turning to `COc1cc2c(cc1OCc1ccccc1)C[N+](C)(Cc1ccc(Oc3ccc(OCc4ccccc4)cc3)nc1)CC2` (centres undefined), the IC50 in assay [5] came out at 8.9 µM; in assay [6] it was 12.4 µM; in assay [7] it was 6.8 µM; in assay [8], 11.6 µM.
In the case of `COc1cc2c(cc1O)C[N+](C)(Cc1ccc(Br)nc1)CC2` (centres undefined), the inhibition at 40 µM in assay [1] came out at 34.5%; in assay [2] it was 34.4%; in assay [3] it was 15%; in assay [4] it was 12.3%.
`COc1cc2c(cc1OCc1ccccc1)C[N+](C)(Cc1ccc(Oc3cc(C(F)(F)F)ccc3F)nc1)CC2` (centres undefined): the half-inhibitory concentration (IC50) stood at 18.6 µM in assay [5], 17.3 µM in assay [6], 12.4 µM in assay [7] and 12.5 µM in assay [8].
Consider `COc1cc2c(c(OC)c1OC)CCN(C)C2`, for which the inhibition at 40 µM in assay [1] was found to be 18.2%; in assay [2], 52%; in assay [3] it was 9.18%; in assay [4], 22.3%.
The like results for `COc1cc2c(cc1OC)C[N+](C)(Cc1ccc(Br)nc1)CC2` (centres undefined) were, in that order, 18.4%, 30.5%, 19.8% and 41.1%.
For `COc1cc2c(cc1OCc1ccccc1)C[N+](C)(Cc1ccnc3ccccc13)CC2` (centres undefined), in that order: 12.1%, 8.29%, 11.7% and 9.33%.
With `COc1ccc2c(c1OC)C(=O)O[C@@H]2[C@H]1c2c(cc3c(c2OC)OCO3)CCN1C` [NOSCAPINE], the IC50 in assay [5] is 154 µM; in assay [6], 120 µM; in assay [7] it was 120 µM; in assay [8] it was 180 µM.
